Measurements: publication PMC11672299, “Conjugation of Polycationic Peptides Extends the Efficacy Spectrum of β‐Lactam Antibiotics” (Advanced Science, 2024)
Where two headings read alike, the source gives them in different places. Square brackets hold non-standard residues; d marks the D form. Peptide text beside a SMILES is read from it. * marks the point of attachment. X1 = CC(C)(O/N=C(\C(=O)N[C@@H]1C(=O)N2C(C(=O)[O-])=C(C[n+]3ccccc3)CS[C@H]12)c1csc(N)n1)C(=O)NCCCCCCN1C(=O)CC(*)C1=O

Tests used:
[1] = system: K. pneumoniae 0 6841/Nr.45 (Oxa48); assay: microbe, parasite or virus in culture; assay type: cell-based; settings: Klebsiella pneumoniae, 20 h; K. pneumoniae 06841/Nr.45 (Oxa48); combinations: avibactam fixed 4 mg L^−1, clavulanic acid 2 mg L^−1; median (n = 3)
Method: (§1) The minimum inhibitory concentration (MIC) of the β‐lactam–peptide conjugates was determined by broth microdilution as previously described.^[ [17] ^] Briefly, in cation‐adjusted MHB II medium, a twofold serial dilution of the compounds was prepared in 96‐well round‐bottom polystyrene or polypropylene microtiter plates with each well containing 50 µL. The plates were inoculated with 50 µL bacterial suspension and the final inoculum, in a total volume of 100 µL, contained 5 × 10^5 CFU mL^−1. The microplates were incubated for 20 h at 37 ± 1 °C. The lowest concentration preventing visible bacterial growth was considered the MIC value. For susceptibility testing of combinations of β‐lactamase‐inhibitors with either a β‐lactam antibiotic or a β‐lactam–peptide conjugate, fixed concentrations of the inhibitors according to the EUCAST (European Committee on Antimicrobial Susceptibility Testing) guidelines (clavulanic acid = 2 mg L^−1, avibactam = 4 mg L^−1) were used.

[2] = system: K. pneumoniae BL809453 (KPC); assay: microbe, parasite or virus in culture; assay type: cell-based; settings: Klebsiella pneumoniae, 20 h, combinations: avibactam fixed 4 mg L^−1, clavulanic acid 2 mg L^−1, median (n = 3)
Method: as §1

[3] = system: A. baumannii SC300007 (Oxa23); assay: microbe, parasite or virus in culture; assay type: cell-based; settings: Acinetobacter baumannii, 20 h, combinations: avibactam fixed 4 mg L^−1, clavulanic acid 2 mg L^−1, median (n = 3)
Method: as §1

E. coli ATCC 25 922 (–) = assay: microbe, parasite or virus in culture; assay type: cell-based; settings: Escherichia coli, 20 h; E. coli ATCC 25922 (no β‐lactamase); combinations: avibactam fixed 4 mg L^−1, clavulanic acid 2 mg L^−1; median (n = 3)
Method: as §1

[4] = system: K. pneumoniae ATCC 700 603 (SHV‐18); assay: microbe, parasite or virus in culture; assay type: cell-based; settings: Klebsiella pneumoniae, 20 h; K. pneumoniae ATCC 700603 (SHV‐18); combinations: avibactam fixed 4 mg L^−1, clavulanic acid 2 mg L^−1; median (n = 3)
Method: as §1

B. subtilis DSM 10 = assay: microbe, parasite or virus in culture; assay type: cell-based
Method: as §1

[5] = system: E. casseliflavus ATCC 700327; assay: microbe, parasite or virus in culture; assay type: cell-based; settings: E. casseliflavus ATCC 700327, median (n = 3)
Method: as §1

E. faecalis ATCC 29212 = assay: microbe, parasite or virus in culture; assay type: cell-based; settings: E. faecalis ATCC 29212, median (n = 3)
Method: as §1

Scintigraphy in mice = assay type: in vivo, Swiss mice
Method: To enable radiolabeling of the β‐lactam–peptide conjugates, their peptide sequence was elongated by an N‐terminal D‐tyrosine. […] The solution was mixed with 5 MBq of iodine‐125 and radiolabeling was performed using the chloramine T method as previously described.^[ [35] ^] After 30 s, the reaction was quenched by the addition of a saturated methionine solution and the radiolabeled compound purified by reversed‐phase preparative radio‐HPLC (1100 series, Agilent Technologies, Santa Clara, CA, USA). Analysis was performed by analytical radio‐HPLC (1100 series, Agilent Technologies, Santa Clara, CA, USA) using a linear gradient from water (+ 0.1% TFA) to acetonitrile (+ 0.1% TFA) over 5 min at a flow rate of 2 mL min^−1.
All animal studies were approved by the Animal Care and Use committees from Regierungspräsidium Karlsruhe (Karlsruhe, Germany; reference number 35–9185.81/G‐199/21; date of approval: November 23, 2021). To obtain scintigraphic images, 1–3 MBq of the respective ^125I‐radiolabeled β‐lactam–peptide conjugate was intravenously injected into the tail vein of isoflurane anaesthetized female Wistar rats or Swiss mice. Scintigraphic images were taken with a γ‐camera (Biospace Lab, Nesles‐la‐Vallée, France) at 10 min, 1, 2, 3, and 24 h after injection of the compounds.

PBP2A = target: T1, PBP2A (Bacillus subtilis, UniProt P54488); assay: Gel‐based PBP affinity assay (Bocillin FL competition); assay type: binding; settings: B. subtilis membrane fractions, competition with Bocillin FL penicillin; compared with parent β‐lactam
T1 construct: endogenous in cells; host or cells: B. subtilis DSM 10, extracted membrane protein fraction
Method: B. subtilis DSM 10 and E. faecalis ATCC 51 299 (equal to DSM 12 956) membrane protein fractions were extracted according to the protocol of Dean et al. with minor modifications.^[ [34] ^] From a growing overnight bacterial culture, 3 L of LB (Luria‐Bertani) medium or TSB (tryptic soy broth) were inoculated with B. subtilis DSM 10 and E. faecalis ATCC 51 299, respectively, to obtain an OD600 = 0.3. The cultures were grown to an OD600 = 0.6–0.8 while shaking at 37 °C and cells were harvested by centrifugation at 4000 g for 30 min at 4 °C. The resulting pellet was washed twice with pre‐cooled PBS and resuspended in 30 mL of ice‐cooled PBS. The suspension was sonicated on ice (10 cycles of 30 s at 50% power for B. subtilis; 12 cycles of 30 s at 80% power for E. faecalis; 2 min intervals between cycles) using an Omni Ruptor 4000 ultrasonic homogenizer (Omni International, Kennesaw, GA, USA). Afterwards, the suspension was centrifuged at 7000 g for 10 min at 4 °C. The clear supernatant was transferred into a 50 mL polypropylene tube and centrifuged in a Beckman Coulter centrifuge equipped with a JA‐20 fixed‐angle rotor (Beckman Coulter, Krefeld, Germany) at 50 000 g for 1 h at 4 °C. The resulting pellet was washed with ice‐cold PBS and centrifuged a second time. The pellet was resuspended in 2 mL PBS and aliquots were stored at −80 °C. The protein content was determined using Bradford reagent (VWR International, Darmstadt, Germany) and Pierce BCA (bicinchoninic acid) protein assay kits (Thermo Fisher Scientific, Waltham, MA, USA) for membrane fractions of B. subtilis and E. faecalis, respectively.
Each dilution was combined with B. subtilis (30 µg) or E. faecalis (15 µg) extracted membrane fractions. As reference samples, membrane fractions incubated with only PBS were prepared. Reaction mixtures were incubated for 20 min at 37 °C while shaking at 400 rpm. Next, Bocillin FL penicillin (Thermo Fisher Scientific, Waltham, MA, USA) was added to obtain a final concentration of 20 µM in the mixture. Samples were incubated for 30 min at 37 °C while shaking at 400 rpm. To denature the samples, 4× Laemmli sample buffer (Bio‐Rad Laboratories, Feldkirchen, Germany) was added, and the samples incubated for 10 min at 70 °C. Afterwards, the samples were centrifuged for 5 min at 13 000 rpm. Samples were separated by SDS‐PAGE using a 10% Tris‐glycine gel for 100 min at 180 V. The bands were visualized using a Typhoon FLA 9500 imager (GE Healthcare, Chicago, IL, USA) with excitation at 473 nm. The gel images were analyzed using ImageJ software. Brightness and contrast were adjusted to improve the signal‐to‐noise ratio and the background signal was subtracted over the whole image. Next, integrated density values of the gel bands were measured and Bocillin FL penicillin labeling of each PBP in antibiotic‐treated samples were set in proportion to the reference sample. IC50 values were calculated with GraphPad Prism software (version 8.0.1) using inhibitor versus normalized response variable slope and least‐squares fit. […] The mean was calculated using the IC50 values of at least two independent assays for each antibiotic.

[6] = Bacillus subtilis, DSM10, B. subtilis DSM 10, median (n = 3), read-out: MIC
[7] = Swiss mice, i.v., ^125I‐labelled, scintigraphy

T1 sequence (P54488 whole entry): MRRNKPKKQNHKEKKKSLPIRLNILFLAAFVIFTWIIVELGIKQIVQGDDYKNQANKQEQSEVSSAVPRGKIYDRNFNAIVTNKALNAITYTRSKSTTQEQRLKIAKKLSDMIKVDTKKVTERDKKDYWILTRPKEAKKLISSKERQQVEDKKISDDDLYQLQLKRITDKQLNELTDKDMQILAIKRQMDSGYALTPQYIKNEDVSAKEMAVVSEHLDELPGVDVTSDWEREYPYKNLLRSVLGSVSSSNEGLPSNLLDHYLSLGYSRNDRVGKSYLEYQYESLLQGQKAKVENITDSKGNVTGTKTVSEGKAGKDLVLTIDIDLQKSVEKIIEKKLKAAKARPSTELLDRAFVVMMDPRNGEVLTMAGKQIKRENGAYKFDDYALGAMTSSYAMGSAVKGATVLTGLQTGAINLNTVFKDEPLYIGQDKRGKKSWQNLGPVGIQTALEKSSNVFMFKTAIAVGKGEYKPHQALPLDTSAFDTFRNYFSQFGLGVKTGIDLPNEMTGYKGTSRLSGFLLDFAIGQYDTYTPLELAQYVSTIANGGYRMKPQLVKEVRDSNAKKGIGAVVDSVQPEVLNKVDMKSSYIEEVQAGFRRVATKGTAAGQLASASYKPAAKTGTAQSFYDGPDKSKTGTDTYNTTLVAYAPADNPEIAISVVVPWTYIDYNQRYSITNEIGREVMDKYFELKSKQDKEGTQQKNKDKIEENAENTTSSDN

CC1(C)S[C@@H]2[C@H](NC(=O)[C@H](N)c3ccc(O)cc3)C(=O)N2[C@H]1C(=O)O [AMO, amoxicillin]
MIC [1]: > 64 µg/mL | MIC [2]: > 64 µg/mL | MIC [3]: > 64 µg/mL | MIC (E. coli ATCC 25 922 (–)): 6 µg/mL | MIC [4]: > 64 µg/mL | MIC (B. subtilis DSM 10; [6]): 0.1 µg/mL

NC(=O)[C@@H]1CC[C@@H]2CN1C(=O)N2OS(=O)(=O)O [AVI, avibactam]
MIC [1]: > 64 µg/mL | MIC [2]: > 64 µg/mL | MIC [3]: > 64 µg/mL | MIC (E. coli ATCC 25 922 (–)): 16 µg/mL | MIC [4]: > 64 µg/mL

C[C@H]1[C@H](NC(=O)/C(=N\OC(C)(C)C(=O)O)c2csc(N)n2)C(=O)N1S(=O)(=O)O [AZT, aztreonam]
MIC [3]: 64 µg/mL | MIC (E. coli ATCC 25 922 (–)): 0.06 µg/mL | MIC (B. subtilis DSM 10; Bacillus subtilis, DSM10): 512 µg/mL

NC(=O)CCCCCN1C(=O)C=CC1=O [BB linker, 6‐maleinimidohexanamide linker]
MIC [5]: > 64 µg/mL | MIC (B. subtilis DSM 10; B. subtilis DSM 10, median (n = 3)): > 64 µg/mL | MIC (E. faecalis ATCC 29212): > 64 µg/mL

O=C(O)[C@H]1/C(=C/CO)O[C@@H]2CC(=O)N21 [CLV, clavulanic acid]
MIC [1]: > 64 µg/mL | MIC [2]: > 64 µg/mL | MIC [3]: > 64 µg/mL | MIC (E. coli ATCC 25 922 (–)): 32 µg/mL | MIC [4]: 64 µg/mL

CC(C)(O/N=C(\C(=O)N[C@@H]1C(=O)N2C(C(=O)[O-])=C(C[n+]3ccccc3)CS[C@H]12)c1csc(N)n1)C(=O)NCCCCCCN1C(=O)CC(SC[C@H](NC(=O)[C@H](CCCCN)NC(=O)[C@H](CCCCN)NC(=O)[C@H](CCCCN)NC(=O)[C@H](CCCCN)NC(=O)[C@H](CCCCN)NC(=O)[C@@H](N)CCCCN)C(N)=O)C1=O (stereo partly shown) [CTZ-K6] (H-KKKKKKC(X1)-NH2; N-terminus assumed)
elimination route / biodistribution (Scintigraphy in mice; mouse, in vivo, iv): renal elimination | MIC (B. subtilis DSM 10; DSM 10, 20 h): 0.02 µg/mL

CC(C)(O/N=C(\C(=O)N[C@@H]1C(=O)N2C(C(=O)[O-])=C(C[n+]3ccccc3)CS[C@H]12)c1csc(N)n1)C(=O)NCCCCCCN1C(=O)CC(SC[C@H](NC(=O)[C@H](CCCCN)NC(=O)[C@H](CCCCN)NC(=O)[C@H](CCCCN)NC(=O)[C@H](CCCNC(=N)N)NC(=O)[C@H](CCCNC(=N)N)NC(=O)[C@@H](N)CCCNC(=N)N)C(N)=O)C1=O (stereo partly shown) [CTZ-R3K3] (H-RRRKKKC(X1)-NH2; N-terminus assumed)
MIC (B. subtilis DSM 10; DSM 10, 20 h): 0.008 µg/mL

CC(C)(O/N=C(\C(=O)N[C@@H]1C(=O)N2C(C(=O)[O-])=C(C[n+]3ccccc3)CS[C@H]12)c1csc(N)n1)C(=O)NCCCCCCN1C(=O)CC(SC[C@H](NC(=O)[C@H](CCCNC(=N)N)NC(=O)[C@H](CCCNC(=N)N)NC(=O)[C@@H](N)CCCNC(=N)N)C(N)=O)C1=O (stereo partly shown) [CTZ-R3]
MIC (B. subtilis DSM 10; DSM 10, 20 h): 0.06 µg/mL

CC(C)(O/N=C(\C(=O)N[C@@H]1C(=O)N2C(C(=O)[O-])=C(C[n+]3ccccc3)CS[C@H]12)c1csc(N)n1)C(=O)NCCCCCCN1C(=O)CC(SC[C@H](NC(=O)[C@H](CCCCN)NC(=O)[C@H](CCCCN)NC(=O)[C@H](CCCCN)NC(=O)[C@H](CCCCN)NC(=O)[C@H](CCCCN)NC(=O)[C@H](CCCCN)NC(=O)[C@H](N)Cc2ccc(O)cc2)C(N)=O)C1=O (stereo partly shown) [CTZ-yK6] (H-[dY]KKKKKKC(X1)-NH2; N-terminus assumed)
elimination route / biodistribution (Scintigraphy in mice; [7]): eliminated by the kidneys

CC(C)(O/N=C(\C(=O)N[C@@H]1C(=O)N2C(C(=O)[O-])=C(C[n+]3ccccc3)CS[C@H]12)c1csc(N)n1)C(=O)NCCCCCCN1C(=O)CC(SC[C@H](NC(=O)[C@H](CCCNC(=N)N)NC(=O)[C@H](CCCNC(=N)N)NC(=O)[C@H](CCCNC(=N)N)NC(=O)[C@H](CCCNC(=N)N)NC(=O)[C@H](CCCNC(=N)N)NC(=O)[C@H](CCCNC(=N)N)NC(=O)[C@H](N)Cc2ccc(O)cc2)C(N)=O)C1=O (stereo partly shown) [CTZ-yR6] (H-[dY]RRRRRRC(X1)-NH2; N-terminus assumed)
elimination route / biodistribution (Scintigraphy in mice; [7]): mainly accumulated in the liver

CC(C)(O/N=C(\C(=O)N[C@@H]1C(=O)N2C(C(=O)O)=C(C[n+]3ccccc3)CS[C@H]12)c1csc(N)n1)C(=O)NCCCCCCN1C(=O)C=CC1=O [CTZ–BB linker]
MIC ([5]; Enterococcus casseliflavus, ATCC700327, read-out: MIC): > 64 µg/mL | MIC (B. subtilis DSM 10; [6]): 24 µg/mL | MIC (E. faecalis ATCC 29212; Enterococcus faecalis, ATCC29212, read-out: MIC): 1 µg/mL

C[C@@H](O)[C@H]1C(=O)N2C(C(=O)O)=C(S[C@@H]3CN[C@H](C(=O)Nc4cccc(C(=O)O)c4)C3)[C@H](C)[C@H]12 [ERT, ertapenem, reference compound]
MIC (B. subtilis DSM 10; [6]): 0.5 µg/mL

C[C@@H](O)[C@H]1C(=O)N2C(C(=O)O)=C(S[C@H]3C[C@@H](C(=O)Nc4cccc(C(=O)O)c4)N(C(=O)C4CCC(CN5C(=O)CC(SC[C@H](NC(=O)[C@H](CCCNC(=N)N)NC(=O)[C@H](CCCNC(=N)N)NC(=O)[C@H](CCCNC(=N)N)NC(=O)[C@H](CCCNC(=N)N)NC(=O)[C@H](CCCNC(=N)N)NC(=O)[C@@H](N)CCCNC(=N)N)C(N)=O)C5=O)CC4)C3)[C@H](C)[C@H]12 (stereo partly shown) [ERT-R6C]
MIC (B. subtilis DSM 10; DSM 10, 20 h): < 0.02 µg/mL | affinity to PBP2A (PBP2A): higher affinity
